This is an account of results in patent publication US10952438B2, “Pesticidal composition and method for controlling pests” (ISHIHARA SANGYO KAISHA, LTD., priority 2017, dated 2021).

What all share (format): in vivo
The subject of assay [1] is Comstock mealybug (Pseudococcus comstocki). Briefly: Test Example 1: test on effects against Comstock mealybug, leaf disk spray. As to conditions: foliar, 168 h, first instar larvae, 7 days after application, read-out: Corrected mortality. An excerpt: (§1) A plastic cup (diameter 9 cm, height: 4 cm) filled with tap water was covered with a plastic lid (diameter 9 cm, with a hole having a diameter of 0.5 cm at its center portion), and an absorbent cotton sheet (diameter 9 cm) as shown in FIG. 1 was placed thereon. The cut portion of the absorbent cotton sheet was put into the plastic cup through the hole at the center portion of the lid and dipped in the tap water. Filter paper (diameter 9 cm) was placed on the absorbent cotton sheet, and a kidney bean primary leaf was further placed thereon so that the abaxial side faced upward. The kidney bean primary leaf was covered with filter paper (diameter 9 cm, with a hole having a diameter of 3 cm at its center portion) to prepare a leaf disk.
(§2) Thirty first instar larvae of Comstock mealybug (Pseudococcus comstocki) were released on the hole at the center portion of the leaf disk, and the leaf disk was left at rest in a breeding room (25° C., humidity: 60%). Two days later, the number of surviving larvae in the leaf disk was examined, and then a chemical solution at predetermined concentrations of active ingredients was sprayed on the leaf disc by a rotary spraying apparatus (tower sprayers TS-301) in an application amount corresponding to 100 L/10 a, and the leaf disk was left at rest in the breeding room. Seven days after application, the number of surviving larvae was examined, and the difference with the number of surviving larvae before application was taken as the mortality. The same test was conducted using tap water as a negative control, the corrected mortality (%) was calculated in accordance with the formula 1, and the results are shown in Table 1. Further, in accordance with the Colby's formula, the theoretical value (%) was calculated based on the obtained corrected mortality and shown in brackets in Table 1. The composition of the present invention has a synergistic pesticidal effect when the corrected mortality is higher than the theoretical value by the Colby's formula. The test was conducted three times. Corrected mortality (%)=100×((morality in treated area−mortality in control area)/(100−mortality in control area)) Formula 1

The test system is the same in assay [2]. As to the kind of experiment: Test Example 2: same test as Test Example 1, different flonicamid concentration. The note with it: 168 h, first instar larvae, 7 days after application, read-out: Corrected mortality.
Description: as §1
as §2, with “Corrected mortality (%)=100×((morality in treated area−mortality in control area)/(100−mortality in control area)) Formula 1” left out

Assay [3] has the same test system. Briefly: Test Example 3: same test as Test Example 1, different flonicamid and D-limonene concentrations. The note with it: 168 h, first instar larvae, 7 days after application, read-out: Corrected mortality.
Description: as §1, §2
The test was conducted in the same manner as in Test Example 1 except that the concentrations of flonicamid and D-limonene were different.

As for `N#CCNC(=O)c1cnccc1C(F)(F)F` [Flonicamid, N-cyanomethyl-4-trifluoromethyl-3-pyridinecarboxamide], the mortality at 10 ppm in assay [1] (flonicamid 10 ppm alone) turned out to be 7.9%. The mortality at 20 ppm in assay [1] (flonicamid 20 ppm alone) is 16.1%. Further, the figures for the mortality at 160 ppm in assay [2] (flonicamid 160 ppm alone) and in assay [3] (flonicamid 160 ppm alone) were 68.8% and 55%, respectively. Also, in assay [3] (flonicamid 80 ppm alone), the mortality at 80 ppm turned out to be 25.5%.
With `C=C(C)[C@H]1CC=C(C)CC1` [D-Limonene, (4R)-p-menth-1,8-diene], the mortality at 720 ppm in assay [1] (D-limonene 720 ppm alone) came out at 7.7%; in assay [2] (D-limonene 720 ppm alone), 4.5%. The mortality at 1440 ppm in assay [1] (D-limonene 1440 ppm alone) was 27.7%; in assay [2] (D-limonene 1440 ppm alone) it was 21.3%. Besides, the mortality at 180 ppm in assay [3] (D-limonene 180 ppm alone) amounted to 0%. Also, the mortality at 360 ppm in assay [3] (D-limonene 360 ppm alone) is 35.1%.

One may read the mortality as the percentage killed.
